Assay results taken from patent US5932580A, “PDGF receptor kinase inhibitory compounds their preparation and compositions” (priority 1997, dated 1999).
“Also recorded” adds a separate entry of the source. Like-named read-outs stand apart in the source and are kept apart here.

Assays:
[1] = test system: porcine aortic smooth muscle cells (SMC); assay: Inhibition of cell proliferation and recovery, porcine SMC; format: cell-based; conditions: for inhibitory effect on porcine SMC growth (in words) / toxicity on SMC / inhibition at 10 µM: 10 μM; for inhibitory effect on porcine SMC growth (in words): FIGS. 3-7; for toxicity on SMC / reversibility of the inhibitory effect / recovery of SMC growth after washout: porcine SMC; for inhibition at 10 µM: Sus scrofa; for reversibility of the inhibitory effect / recovery of SMC growth after washout: cultures washed, cells allowed to recover
Description: Smooth muscle cells (SMC) were obtained under aseptic conditions from porcine abdominal aortas, and human internal mammary arteries (IMA). Specimens from the operating room were transferred on ice to the tissue culture room. Each artery was cut open and the endothelial surface mechanically scraped. […] The tissue fragments were then placed in an incubator at 37° C. under 9% CO2 atmosphere until SMC outgrowth was detected (typically within 3-7 days). […] For experiments testing the effect of tyrphostins on growth inhibition and recovery (see below), SMC from passages 1-3 were replated in 15 mm wells pretreated with 3 μg/cm^2 fibronectin (Biological Industries, Kibbutz Beit Haemek, Israel) at 15,000 cells/well.
Inhibition of cell proliferation and recovery: Monolayer cell growth inhibition and recovery experiments were repeated 3 or 4 times. Each experiment was performed in triplicate. […] Cultures were treated with a tyrphostin (10 μM) dissolved in 0.1% DMSO on days 1 and 3. On day 6, cultures were washed and the cells allowed to recover. Typically cells were counted on days 3 and 5 for inhibition, and on days 7, 10 and 15 for recovery, other schedules were also employed as reported below.

[2] = target: T1, PDGF β-receptor (Sus scrofa, UniProt F1RL75); assay: PDGF induced PDGFR autophosphorylation in intact SMC cells; format: cell-based; conditions: porcine arterial SMC; for inhibition of PDGF-BB induced PDGF β-receptor tyrosine-phosphorylation: tyrphostin 10 μM, 60 min preincubation, PDGF-BB 100 ng/ml
T1 construct: PDGF-BB stimulated; immunoprecipitated with PDGF beta-receptor specific antiserum R3
Description: Effect of tyrphostins on PDGF induced PDGFR autophosphorylation in intact SMC cells: Subconfluent porcine arterial smooth muscle cells, cultivated in Dulbecco's modified Eagle's medium (DMEM) supplemented with 15% fetal calf serum (FCS), were synchronized for 20 hours in a medium containing 2% FCS. […] After stimulation, the cells were solubilized in Nonidet P-40 (1%) containing lysis buffer.
The analysis of PDGF p-receptor phosphorylation was performed as follows. Cell lysates were subjected to immunoprecipitation using the PDGF β-receptor specific antiserum R3 [5]. The percipitates were subjected to polyacrylamide (7.5%) gel electrophoresis in presence of sodium deducyl sulfate (SDS-PAGE) and were thereafter blotted onto a nitrocellulose membrane (Hybond C-EXTRA, Amersham). Phosphorylated proteins were detected by immunoblotting using the horseradish-peroxidase conjugated phosphotyrosine antibody RC20H (Transduction Laboratories), followed by chemoluminescence-based detection (ECL, Amersham) and autoradiography.
Detection of receptor proteins was performed as follows. Cell lysates were subjected to immunoprecipitation using the PDGF β-receptor specific antiserum R3 [5], as described above, and the percipitates washed three times and thereafter subjected to SDS-PAGE (7.5%) and blotting onto a nitrocellulose membrane (Hybond C-EXTRA, Amersham). Receptor proteins were detected by immunoblotting using the horseradish-peroxidase conjugated donkey anti-rabbit antibody (Amersham), followed by chemoluminescence-based detection (ECL, Amersham) and autoradiography.

[3] = target: T2, EGFR (Mus musculus, UniProt Q01279); assay: EGFR autophosphorylation, isolated membranes or intact Swiss 3T3 cells; format: biochemical; conditions: read-out: IC50 (50% inhibition of phosphorylation) EGFR
T2 construct: Membranes were prepared from confluent cultures of Swiss 3T3 cells; endogenous in cells; host or cells: Swiss 3T3 (obtained from E. Rozengurt, London)
Description: Assay of receptor autophosphorylation in intact 3T3 cells: Confluent Swiss 3T3 cells in 24-well plates (Nunc) were incubated for 20-24 hours in serum-free DMEM. Subsequently, tyrphostins were added at concentrations ranging from 0 to 100 μM (final DMSO concentration, 0.5%) and the incubation was continued for 6-8 hours. The cells were then stimulated with 100 ng/ml PDGF-BB for 5 min at room temperature or 600 ng/ml EGF for 2.5 min on ice. The growth factor treatment was terminated by washing twice with ice-cold PBS and the cells were scraped off the wells in 60 μl lysis buffer containing 20 mM Hepes (pH 7.4), 150 mM NaCl, 1% Triton X-100, 10 mM sodium pyrophosphate, 50 mM NaF, 2 mM sodium-o-vanadate, 20 μm zinc acetate, 10 nM EDTA, 2 mM [ethylenebis(oxyethilenenitrilo)] tetraacetic acid, 1 mM phenylmethylsulfonyl fluoride, and 5 μg/ml leupeptin.
The cell lysates were clarified by centrifugation (cooled microfuge, 17,000 rpm, 15 min) and analyzed by SDS-PAGE (6.5% gels) and immunoblotting with anti-phosphotyrosine antibodies (either PY 20, ICN, and subsequently a peroxidase-coupled secondary antibody, or RC20-peroxidase conjugate, Affinity, Nottingham, United Kingdom). The blots were developed with a chemiluminescence detection system (Western Light, Tropix, or ECL, Amersham).
Membrane autophosphorylation assays: Membranes were prepared from confluent cultures of Swiss 3T3 cells as described [22]. For measuring receptor autophosphorylation, 10 μg membrane protein per assay were incubated for 20 min on ice in the presence of 1.2 μg/ml EGF or 2 μg/ml PDGF, or both; 50 mM Hepes (pH 7.5); and 3 mm MnCl2 (final concentrations) in a volume of 45 μl. In order to test the effects and determine the IC50 value of various tyrphostins, these were added in a volume of 0.5 μl (in DMSO; final concentration, 0.5%) 15 min before addition of the growth factors, in a range of concentrations. […] For quantification of radioactivity in electrophoresis gels, a Phospho-Imager (Molecular Dynamics, Fuji, or Bio-Rad) was used according to the instructions of the manufacturers. […]

[4] = target: T3, SRC kinase (Gallus gallus, UniProt P00523, Y527F); assay: Src kinase activity assay (immunoprecipitate from src-transformed NIH 3T3 cells); format: biochemical, chicken; conditions: read-out: IC50 (50% inhibition of phosphorylation) SRC kinase
T3 construct: expressed in transfected cells; host or cells: NIH 3T3, stably transfected (gift of S. Courtneidge, Heidelberg)
Description: Src kinase activity assay: src-transformed NIH 3T3 cells were grown in 24-well plates to confluency; rinsed twice with a solution containing 20 mM Tris, 0.1 mM sodium-o-vanadate, and 150 mM NaCl (pH 7.5); and lysed in 100 μl/well of lysis buffer containing 20 mM Tris (pH 8.0), 150 mM NaCl, 1% Nonidet P-40, 2.5 mM EDTA, 10 mM NaF, 1% trasylol, and 20 μm leupeptin. The lysate was clarified by centrifugation and subjected to immunoprecipitation with the anti-Src monoclonal antibody MAb 327 (Oncogene Science; 0.5 μg antibody/80 μg protein) for 1 hour at 4° C. Then, goat anti-mouse IgG (Sigma; 0.2 μg per 0.5 μg monoclonal antibody 327) was added and incubation was continued for 30 mi followed by another 40 min of incubation with 10 μl of protein A-Sepharose Cl-4B (Pharmacia). The immunoprecipitates were washed five times with the lysis buffer and twice with kinase buffer containing 40 mM Hepes (pH 7.4), 0.5 mM dithiothreitol, 5 mM MnCl2, and 0.1 mM sodium-o-vanadate. The immunoprecipitates were suspended in kinase buffer and aliquots corresponding to 40 μg of cell lysate protein were preincubated with or without tyrphostin for 15 min at 30° C. Then, the kinase reaction was performed in the presence of 2 μg of acid-treated enolase and 10 μCi of [γ-^32 P]ATP (2 μM) in a final volume of 30 μl. The reaction was terminated by addition of SDS-PAGE sample buffer (6% SDS, 30% β-mercaptoetlhanol, 40% glycerol, and 0.5 mg/ml bromophenol blue) and the incorporation of radioactivity in the enolase was analyzed by SDS-PAGE and autoradiography as well as Phosphor-Imager quantification.

[5] = 120 h, by day 5 (day given for AG1295 and AG1992), read-out: reduction in SMC count / inhibition of SMC growth over control
[6] = Table 2, read-out: mean reduction in SMC count compared to control cells (maximal inhibition in SMC growth)

T1 sequence (F1RL75 109-1181): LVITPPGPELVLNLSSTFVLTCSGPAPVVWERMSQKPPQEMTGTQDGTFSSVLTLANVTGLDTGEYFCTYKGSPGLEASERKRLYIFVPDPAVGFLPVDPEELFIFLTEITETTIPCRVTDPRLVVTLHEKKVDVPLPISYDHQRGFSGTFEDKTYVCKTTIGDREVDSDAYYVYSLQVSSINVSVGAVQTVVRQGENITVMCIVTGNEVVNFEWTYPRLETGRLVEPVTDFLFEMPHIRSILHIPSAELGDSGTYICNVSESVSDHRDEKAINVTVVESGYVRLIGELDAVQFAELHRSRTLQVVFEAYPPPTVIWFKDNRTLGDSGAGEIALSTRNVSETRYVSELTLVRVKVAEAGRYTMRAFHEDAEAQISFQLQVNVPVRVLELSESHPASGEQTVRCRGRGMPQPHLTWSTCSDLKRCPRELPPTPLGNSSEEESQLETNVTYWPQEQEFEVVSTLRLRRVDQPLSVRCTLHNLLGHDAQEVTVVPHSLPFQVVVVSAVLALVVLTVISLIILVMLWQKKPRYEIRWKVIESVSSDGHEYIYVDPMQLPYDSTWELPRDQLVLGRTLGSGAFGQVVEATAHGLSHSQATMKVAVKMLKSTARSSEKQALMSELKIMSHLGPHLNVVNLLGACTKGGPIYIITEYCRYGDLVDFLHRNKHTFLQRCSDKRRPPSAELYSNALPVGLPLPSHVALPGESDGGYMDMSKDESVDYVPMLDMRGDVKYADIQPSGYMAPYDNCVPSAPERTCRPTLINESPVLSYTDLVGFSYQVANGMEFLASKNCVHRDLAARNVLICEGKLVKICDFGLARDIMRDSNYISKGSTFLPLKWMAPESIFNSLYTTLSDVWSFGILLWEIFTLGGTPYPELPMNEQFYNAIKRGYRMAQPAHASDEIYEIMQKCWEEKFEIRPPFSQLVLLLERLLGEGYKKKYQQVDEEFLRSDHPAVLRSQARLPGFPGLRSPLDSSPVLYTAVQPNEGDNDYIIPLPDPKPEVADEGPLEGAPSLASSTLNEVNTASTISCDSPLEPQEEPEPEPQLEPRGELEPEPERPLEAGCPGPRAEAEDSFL
T2 sequence (Q01279 25-1210): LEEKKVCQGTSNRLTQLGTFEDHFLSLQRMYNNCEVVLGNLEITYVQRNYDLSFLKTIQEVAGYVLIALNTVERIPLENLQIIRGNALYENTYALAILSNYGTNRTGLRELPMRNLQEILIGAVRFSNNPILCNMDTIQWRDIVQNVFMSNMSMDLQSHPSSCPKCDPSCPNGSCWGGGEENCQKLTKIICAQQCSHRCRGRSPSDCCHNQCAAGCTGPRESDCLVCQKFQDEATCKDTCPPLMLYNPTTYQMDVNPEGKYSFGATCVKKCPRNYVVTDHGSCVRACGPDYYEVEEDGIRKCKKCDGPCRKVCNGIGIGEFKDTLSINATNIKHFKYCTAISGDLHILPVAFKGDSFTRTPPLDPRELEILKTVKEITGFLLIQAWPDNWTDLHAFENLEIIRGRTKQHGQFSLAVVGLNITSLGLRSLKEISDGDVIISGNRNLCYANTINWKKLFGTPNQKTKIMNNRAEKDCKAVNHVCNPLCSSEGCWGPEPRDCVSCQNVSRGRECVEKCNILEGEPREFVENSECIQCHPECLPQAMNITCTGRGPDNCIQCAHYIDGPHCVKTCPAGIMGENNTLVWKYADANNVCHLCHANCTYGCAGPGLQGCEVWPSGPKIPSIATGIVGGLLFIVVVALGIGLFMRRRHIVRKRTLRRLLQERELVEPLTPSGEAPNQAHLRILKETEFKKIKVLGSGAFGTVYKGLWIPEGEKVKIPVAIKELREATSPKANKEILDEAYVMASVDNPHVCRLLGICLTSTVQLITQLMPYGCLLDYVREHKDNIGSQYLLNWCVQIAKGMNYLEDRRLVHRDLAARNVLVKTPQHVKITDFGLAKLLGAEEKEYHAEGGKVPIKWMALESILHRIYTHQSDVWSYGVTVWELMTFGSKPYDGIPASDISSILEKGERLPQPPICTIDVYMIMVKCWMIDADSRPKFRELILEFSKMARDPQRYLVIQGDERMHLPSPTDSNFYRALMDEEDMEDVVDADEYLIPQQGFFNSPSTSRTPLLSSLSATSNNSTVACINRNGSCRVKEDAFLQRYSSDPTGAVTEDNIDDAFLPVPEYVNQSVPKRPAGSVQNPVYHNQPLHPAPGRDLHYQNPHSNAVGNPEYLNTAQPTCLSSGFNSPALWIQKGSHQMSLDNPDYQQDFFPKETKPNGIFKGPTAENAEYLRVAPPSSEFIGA

Structure (SMILES) | inhibitory effect on porcine SMC growth (in words) [1] | toxicity on SMC [1] | inhibition at 10 µM [1, 5] | inhibition at 10 µM ([1]; FIG. 6 experiment, read-out: maximal inhibitory effect on porcine SMC proliferation) | inhibition at 10 µM [1, 6] | reversibility of the inhibitory effect / recovery of SMC growth after washout [1] | level of PDGF β-receptor protein present in the cells [2] | inhibition of PDGF-BB induced PDGF β-receptor tyrosine-phosphorylation [2] | IC50 [3] | IC50 [4] | inhibition at 10 µM ([1]; FIG. 7 experiment, read-out: maximal inhibitory effect on porcine SMC proliferation)
Cc1nc2cc3nc(-c4ccccc4)cnc3cc2n1C [AG1851] | very potent growth inhibition effect; also recorded: most effective inhibitory response; also recorded: highly effective in blocking proliferation | without having a substantial toxic effect; also recorded: low lasting toxicity | 79% | 78% | 79% | completely reversible; also recorded: normal cell growth appeared immediately after treatment with AG1851 was discontinued | without affecting the level | completely inhibited | > 30 µM | > 30 µM | 
Cc1nc2cc3nc(-c4cccs4)cnc3cc2n1C [AG1992] | very potent growth inhibition effect; also recorded: very effective proliferation inhibitors | low lasting toxicity | 87% |  | 87% | completely reversible | without affecting the level | completely inhibited | > 30 µM | > 30 µM | 89%
